Data reported in patent US20260206761A1, “HETEROARYL-TRIAZOLE COMPOUNDS AS PESTICIDES” (Bayer Aktiengesellschaft, priority 2019, published 2026).

Tests used:
Type in all cases: in vivo
[1] = tested on: Anopheles funestus strain FUMOZ-R; assay: Anopheles funestus test (ANPHFU surface treatment & contact assay); settings: 24 hours after contact, read-out: efficacy (mortality)
Procedure: Anopheles funestus Test (ANPHFU Surface Treatment & Contact Assay)
Solvent: Aceton+2000 ppm rapeseed oil methyl ester (RME)
In order to produce a sufficient, active ingredient containing solution it is necessary to solve the test compound in the solvent-mix (acetone at 2 mg/ml/RME 2000 ppm). This solution is pipetted onto a glazed tile and after evaporation of the acetone, adult mosquitoes of the species Anopheles funestus strain FUMOZ-R (Hunt et al., Med. Vet. Entomol. 2005 September; 19(3): 271-275) are placed onto the dried surface. The exposure time is 30 minutes. Mortality in percent (%) is determined 24 hours after contact of the insects to the treated surface. 100% mortality means that all tested insects are dead, whereas 0% means that no insect died.

[2] = tested on: larvae of the banded cucumber beetle (Diabrotica balteata); assay: Diabrotica balteata spray test; settings: 168 h, application rate 100 g/ha (=32 pg/well), after 7 days, read-out: activity (efficacy: seedlings grown)
In short: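 Wheat seedlings, germinated 1 day on agar (5 seeds/well), sprayed with active compound in acetone/DMF diluted in water containing 1000 ppm emulsifier, then infested with 10-20 D. balteata larvae. Efficacy (%) scored after 7 days: 100% = seedlings grown as untreated uninfested control, 0% = no seedlings grown.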

[3] = tested on: Aedes aegypti strain MONHEIM; assay: Aedes aegypti test (AEDSAE surface treatment & contact assay); settings: 24 hours after contact, read-out: efficacy (mortality)
In short: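 Compound in acetone (2 mg/ml) with 2000 ppm RME pipetted onto glazed tile and dried; adult Aedes aegypti MONHEIM exposed 30 min. Percent mortality scored 24 h after contact.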

[4] = tested on: larvae of the southern green stink bug (Nezara viridula); assay: Nezara viridula spray test; settings: 96 h, after 4 days; for mortality at 100 g/ha: application rate 100 g/ha; for mortality at 500 g/ha: application rate 500 g/ha
In short: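 Compound in acetone/dimethylformamide, diluted in water with 1000 ppm alkylarylpolyglycol ether emulsifier, sprayed onto barley plants carrying stink bug larvae. Mortality (%) scored after 4 days, 100% meaning all insects killed.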

[5] = tested on: green peach aphid (Myzus persicae); assay: Myzus persicae spray test; settings: 120 h, application rate 100 g/ha, after 5 days
In short: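 Chinese cabbage leaf disks carrying all instars of M. persicae sprayed with compound in acetone/DMF, diluted in water with 1000 ppm alkylarylpolyglycol ether emulsifier. Percent mortality scored after 5 days (100% = all aphids killed).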

[6] = tested on: green peach aphid (Myzus persicae); assay: Myzus persicae oral test; settings: 120 h, application rate 4 ppm, after 5 days
In short: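 Compound was dissolved at 1 part by weight in 100 parts acetone, then diluted with water to test concentration and combined with IPL41 insect medium (33%+15% sugar). A mixed aphid population fed on this through a parafilm seal, and mortality (%) was scored after 5 days.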

[7] = tested on: brown planthopper (Nilaparvata lugens); assay: Nilaparvata lugens spray test; settings: 96 h, after 4 days; for mortality at 500 g/ha: application rate 500 g/ha
Procedure: Nilaparvata lugens—Spray Test
Solvent: 78.0 parts by weight of acetone • • 1.5 parts by weight of dimethylformamide
Emulsifier: alkylarylpolyglycol ether
To produce a suitable preparation of active compound, 1 part by weight of active compound is mixed with the stated amount of solvents and is diluted with water, containing an emulsifier concentration of 1000 ppm, to the desired concentration. Further test concentrations are prepared by dilution with emulsifier containing water.
Rice plants (Oryza sativa) are sprayed with a preparation of the active ingredient of the desired concentration and the plants are infested with the brown planthopper (Nilaparvata lugens).
After 4 days mortality in % is determined. 100% means all planthoppers have been killed and 0% means none of the planthoppers have been killed.

[8] = tested on: fall armyworm larvae (Spodoptera frugiperda); assay: Spodoptera frugiperda spray test; settings: 168 h, read-out: activity (mortality)
In short: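 Compound in acetone/DMF, diluted in water with 1000 ppm alkylarylpolyglycol ether emulsifier, sprayed on maize leaf sections. Dried leaves infested with fall armyworm larvae; % mortality after 7 days (100% = all killed, 0% = none).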

[9] = surface concentration 4 mg/m^2, exposure 30 minutes
[10] = surface concentration 20 mg/m^2, exposure 30 minutes

Row | SMILES | mortality at 4 mg/m2 [1, 9] [%] | mortality at 20 mg/m2 [1, 10] [%] | pest or weed control at 100 g/ha [2] [%] | mortality at 4 mg/m2 [3, 9] [%] | mortality at 20 mg/m2 [3, 10] [%] | mortality at 100 g/ha [4] [%] | mortality at 100 g/ha [5] [%] | mortality at 4 ppm [6] [%] | mortality at 100 g/ha ([7]; application rate 100 g/ha) [%] | mortality at 100 g/ha [8] [%] | mortality at 500 g/ha [7] [%] | mortality at 500 g/ha [4] [%]
1 | CC(NC(=O)c1cc(Cl)cc(S(C)(=O)=O)c1)c1nc(Cl)nn1-c1ncccn1 (racemic) [I-29, 3-chloro-N-[1-(5-chloro-2-pyrimidin-2-yl-1,2,4-triazol-3-yl)ethyl]-5-methylsulfonyl-benzamide] | 80 to 100 | 80 to 100 | 100 | 80 to 100 | 80 to 100 | 90 | 90 | 100 | – | – | – | –
2 | CC(NC(=O)c1cc(C(F)(F)F)cc(S(C)(=O)=O)c1)c1nc(Br)nn1-c1ncccn1 (stereo not drawn) [I-38] | – | – | 100 | – | – | 100 | 90 | 100 | 100 | – | – | –
3 | COc1nc([C@H](C)NC(=O)c2cc(OC(F)(F)F)cc(S(C)(=O)=O)c2)n(-c2ncc(Cl)cn2)n1 [I-77] | – | – | 100 | – | – | – | 100 | – | – | 100 | 100 | 100
4 | COc1nc([C@H](C)NC(=O)c2cc(C(F)F)cc(S(C)(=O)=O)c2)n(-c2ncc(Cl)cn2)n1 [I-88] | – | – | 100 | – | – | – | – | – | – | – | 100 | 100
5 | C[C@H](NC(=O)c1cc(OC(F)(F)F)cc(S(=O)(=O)C2CC2)c1)c1nc(C2CC2)nn1-c1ncc(Cl)cn1 [I-93] | – | – | 100 | – | – | – | 100 | – | – | 100 | 90 | 100
6 | C[C@H](NC(=O)c1cc(C(F)(F)F)cc(S(C)(=O)=O)c1)c1nc(Br)nn1-c1ncccn1 [I-95, N-[(1S)-1-(5-bromo-2-pyrimidin-2-yl-1,2,4-triazol-3-yl)ethyl]-3-methylsulfonyl-5-(trifluoromethyl)benzamide] | – | – | 100 | – | – | – | 90 | – | – | 100 | 100 | –
